Values after ≈ are worked out from the molar mass of the structure shown.
What was measured:
[1] = target: T1, PBP1a from Acinetobacter baumannii (ATCC 19606) (Acinetobacter baumannii, UniProt A0ABX6CK30); experiment: Bocillin-FL fluorescence polarization competition binding, A. baumannii PBP1a; conditions: fluorescence polarization competition binding assay using Bocillin-FL; read-out: A. baumannii PBP1a Potency
T1 sequence (A0ABX6CK30 1-851): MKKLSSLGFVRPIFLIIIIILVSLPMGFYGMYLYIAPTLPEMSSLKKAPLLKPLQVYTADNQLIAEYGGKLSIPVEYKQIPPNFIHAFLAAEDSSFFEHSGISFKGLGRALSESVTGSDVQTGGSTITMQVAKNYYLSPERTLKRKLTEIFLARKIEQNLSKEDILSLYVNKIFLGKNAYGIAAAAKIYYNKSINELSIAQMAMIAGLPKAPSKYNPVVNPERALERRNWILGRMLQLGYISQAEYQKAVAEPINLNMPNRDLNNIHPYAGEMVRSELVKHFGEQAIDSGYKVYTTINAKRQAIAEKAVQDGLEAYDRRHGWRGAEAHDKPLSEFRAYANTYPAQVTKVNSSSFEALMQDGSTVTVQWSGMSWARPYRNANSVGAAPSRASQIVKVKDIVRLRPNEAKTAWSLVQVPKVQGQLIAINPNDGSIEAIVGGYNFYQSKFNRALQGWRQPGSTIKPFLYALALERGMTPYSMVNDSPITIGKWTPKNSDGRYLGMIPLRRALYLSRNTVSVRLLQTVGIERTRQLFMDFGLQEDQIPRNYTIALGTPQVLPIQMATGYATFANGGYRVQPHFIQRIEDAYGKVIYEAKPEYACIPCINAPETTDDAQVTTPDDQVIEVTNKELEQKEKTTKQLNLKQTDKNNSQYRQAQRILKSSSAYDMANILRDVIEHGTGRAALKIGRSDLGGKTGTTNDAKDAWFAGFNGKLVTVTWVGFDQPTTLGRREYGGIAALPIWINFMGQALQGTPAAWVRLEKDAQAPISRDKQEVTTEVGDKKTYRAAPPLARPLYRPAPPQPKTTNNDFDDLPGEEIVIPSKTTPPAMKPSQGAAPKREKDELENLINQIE
In short: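 Purified PBPs pre-incubated with inhibitor (E. coli PBP3 1.5 μM, 30 min; P. aeruginosa PBP3 0.75 μM, A. baumannii PBP1a 1 μM and PBP3 0.2 μM, 15 min), then Bocillin-FL 0.1 μM (0.05 μM for PBP1a) added; FP read up to 60 min. EC50 = concentration halving bound Bocillin-FL.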

P. aeruginosa CDC-0110 = experiment: microbe, parasite or virus in culture; assay type: cell-based; conditions: Pseudomonas aeruginosa, CDC0110, read-out: Minimum inhibitory concentration, P. aeruginosa CDC-0110
P. aeruginosa ATCC 35151 = experiment: microbe, parasite or virus in culture; assay type: cell-based; conditions: Pseudomonas aeruginosa, ATCC35151, read-out: MIC P. aeruginosa ATCC 35151
E. coli AG100A = experiment: Broth microdilution MIC in CAMHB; assay type: cell-based; conditions: Escherichia coli, read-out: MIC E. coli AG100A
E. coli D22 = experiment: microbe, parasite or virus in culture; assay type: cell-based; conditions: Escherichia coli, D22, read-out: MIC E. coli D22
K. pneumoniae UMM = experiment: microbe, parasite or virus in culture; assay type: cell-based; conditions: Klebsiella pneumoniae, read-out: MIC K. pneumoniae UMM
K. pneumoniae SI-117 = experiment: microbe, parasite or virus in culture; assay type: cell-based; conditions: Klebsiella pneumoniae, SI117, read-out: MIC K. pneumoniae SI-117
E. coli 901C = experiment: microbe, parasite or virus in culture; assay type: cell-based; conditions: Escherichia coli, read-out: MIC E. coli 901C

Row | SMILES | IC50 [1] [µM] | also measured
1 | O=C(O)c1c(F)ccc2c1OB(O)[C@@H](NC(=O)[C@H](NC(=O)N1CCN(C3CCN(C(=O)Nc4c(F)ccc(O)c4F)CC3)C1=O)c1cc(F)c(O)c(O)c1Cl)C2 (single isomer, unassigned) [Example 454] | > 250 | 
2 | O=C(O)c1c(F)ccc2c1OB(O)[C@@H](NC(=O)[C@H](NC(=O)N1CCN(C3CCN(Cc4cccnc4)CC3)C1=O)c1cc(F)c(O)c(O)c1Cl)C2 [Example 492, (R)-3-((R)-2-(2-chloro-5-fluoro-3,4-dihydroxyphenyl)-2-(2-oxo-3-(1-(pyridin-3-ylmethyl)piperidin-4-yl)imidazolidine-1-carboxamido)acetamido)-7-fluoro-2-hydroxy-3,4-dihydro-2H-benzo[e][1,2]oxaborinine-8-carboxylic acid] |  | MIC (P. aeruginosa CDC-0110): < 1 µg/mL
3 | O=C(O)c1c(F)ccc2c1OB(O)[C@@H](NC(=O)[C@H](NC(=O)N1CCN(C3CCN(C(=O)Nc4ccc(F)c(O)c4)CC3)C1=O)c1cc(F)c(O)c(O)c1Cl)C2 (single isomer, unassigned) [Example 449] | > 250 | 
4 | O=C(O)c1c(F)ccc2c1OB(O)[C@@H](NC(=O)C(NC(=O)N1CCN(C3CCN(C(=O)Nc4cc(O)ccc4F)CC3)C(=O)C1=O)c1cc(F)c(O)c(O)c1Cl)C2 (stereo partly drawn) [Example 479, (3R)-3-(2-(2-chloro-5-fluoro-3,4-dihydroxyphenyl)-2-(4-(1-((2-fluoro-5-hydroxyphenyl)carbamoyl)piperidin-4-yl)-2,3-dioxopiperazine-1-carboxamido)acetamido)-7-fluoro-2-hydroxy-3,4-dihydro-2H-benzo[e][1,2]oxaborinine-8-carboxylic acid] | > 250 | 
5 | O=C(O)c1c(F)ccc2c1OB(O)[C@@H](NC(=O)[C@H](NC(=O)N1CCN(C3CCN(C(=O)Nc4cccc(O)c4Cl)CC3)C(=O)C1=O)c1cc(F)c(O)c(O)c1Cl)C2 [Example 482, (R)-3-((R)-2-(4-(1-((2-chloro-3-hydroxyphenyl)carbamoyl)piperidin-4-yl)-2,3-dioxopiperazine-1-carboxamido)-2-(2-chloro-5-fluoro-3,4-dihydroxyphenyl)acetamido)-7-fluoro-2-hydroxy-3,4-dihydro-2H-benzo[e][1,2]oxaborinine-8-carboxylic acid] | > 250 | 
6 | O=C(O)c1c(F)ccc2c1OB(O)[C@@H](NC(=O)C(NC(=O)N1CCN(C3CCN(C(=O)Nc4cc(O)c(F)c(F)c4)CC3)C(=O)C1=O)c1cc(F)c(O)c(O)c1Cl)C2 (stereo partly drawn) [Example 488, (3R)-3-(2-(2-chloro-5-fluoro-3,4-dihydroxyphenyl)-2-(4-(1-((3,4-difluoro-5-hydroxyphenyl)carbamoyl)piperidin-4-yl)-2,3-dioxopiperazine-1-carboxamido)acetamido)-7-fluoro-2-hydroxy-3,4-dihydro-2H-benzo[e][1,2]oxaborinine-8-carboxylic acid] |  | MIC (P. aeruginosa CDC-0110): < 1 µg/mL
7 | O=C(O)c1c(F)ccc2c1OB(O)[C@@H](NC(=O)C(NC(=O)N1CCN(C3CCN(C(=O)Nc4cc(O)cc(Cl)c4)CC3)C(=O)C1=O)c1cc(F)c(O)c(O)c1Cl)C2 (stereo partly drawn) [Example 484, (3R)-3-(2-(2-chloro-5-fluoro-3,4-dihydroxyphenyl)-2-(4-(1-((3-chloro-5-hydroxyphenyl)carbamoyl)piperidin-4-yl)-2,3-dioxopiperazine-1-carboxamido)acetamido)-7-fluoro-2-hydroxy-3,4-dihydro-2H-benzo[e][1,2]oxaborinine-8-carboxylic acid] | > 250 | 
8 | O=C(O)c1c(F)ccc2c1OB(O)[C@@H](NC(=O)[C@H](NC(=O)N1CCN(C3CCN(C(=O)Nc4cc(F)c(F)c(O)c4F)CC3)C(=O)C1=O)c1cc(F)c(O)c(O)c1Cl)C2 [Example 491, (R)-3-((R)-2-(2-chloro-5-fluoro-3,4-dihydroxyphenyl)-2-(2,3-dioxo-4-(1-((2,4,5-trifluoro-3-hydroxyphenyl)carbamoyl)piperidin-4-yl)piperazine-1-carboxamido)acetamido)-7-fluoro-2-hydroxy-3,4-dihydro-2H-benzo[e][1,2]oxaborinine-8-carboxylic acid] |  | MIC (P. aeruginosa CDC-0110): < 1 µg/mL
9 | O=C(O)c1c(F)ccc2c1OB(O)[C@@H](NC(=O)C(NC(=O)N1CCN(C3CCN(C(=O)Nc4ccc(F)c(O)c4)CC3)C(=O)C1=O)c1cc(F)c(O)c(O)c1Cl)C2 (stereo partly drawn) [Example 480, (3R)-3-(2-(2-chloro-5-fluoro-3,4-dihydroxyphenyl)-2-(4-(1-((4-fluoro-3-hydroxyphenyl)carbamoyl)piperidin-4-yl)-2,3-dioxopiperazine-1-carboxamido)acetamido)-7-fluoro-2-hydroxy-3,4-dihydro-2H-benzo[e][1,2]oxaborinine-8-carboxylic acid] | > 250 | 
10 | O=C(O)c1c(F)ccc2c1OB(O)[C@@H](NC(=O)C(NC(=O)N1CCN(C3CCN(C(=O)Nc4ccc(F)c(O)c4F)CC3)C1=O)c1cc(F)c(O)c(O)c1Cl)C2 (stereo partly drawn) [Example 452, (3R)-3-(2-(2-chloro-5-fluoro-3,4-dihydroxyphenyl)-2-(3-(1-((2,4-difluoro-3-hydroxyphenyl)carbamoyl)piperidin-4-yl)-2-oxoimidazolidine-1-carboxamido)acetamido)-7-fluoro-2-hydroxy-3,4-dihydro-2H-benzo[e][1,2]oxaborinine-8-carboxylic acid] | > 250 | 
11 | O=C(O)c1c(F)ccc2c1OB(O)[C@@H](NC(=O)C(NC(=O)N1CCN(C3CCN(C(=O)Nc4cc(O)cc(F)c4)CC3)C(=O)C1=O)c1cc(F)c(O)c(O)c1Cl)C2 (stereo partly drawn) [Example 481, (3R)-3-(2-(2-chloro-5-fluoro-3,4-dihydroxyphenyl)-2-(4-(1-((3-fluoro-5-hydroxyphenyl)carbamoyl)piperidin-4-yl)-2,3-dioxopiperazine-1-carboxamido)acetamido)-7-fluoro-2-hydroxy-3,4-dihydro-2H-benzo[e][1,2]oxaborinine-8-carboxylic acid] | > 250 | 
12 | O=C(O)c1cccc2c1OB(O)[C@@H](NC(=O)C(NC(=O)N1CCN(Cc3cc(F)c(O)c(O)c3Cl)C(=O)C1=O)c1ccc(P(=O)(O)O)cc1)C2 (stereo partly drawn) [Example 164, (3R)-3-(2-(4-(2-chloro-5-fluoro-3,4-dihydroxybenzyl)-2,3-dioxopiperazine-1-carboxamido)-2-(4-phosphonophenyl)acetamido)-2-hydroxy-3,4-dihydro-2H-benzo[e][1,2]oxaborinine-8-carboxylic acid] | > 250 | 
13 | O=C(O)c1c(F)ccc2c1OB(O)[C@@H](NC(=O)[C@H](NC(=O)N1CCN(Cc3ccc(O)c(O)c3Cl)C(=O)C1=O)c1ccc(P(=O)(O)O)cc1)C2 (single isomer, unassigned) [Example 160] |  | MIC (P. aeruginosa ATCC 35151): < 1 µg/mL; MIC (E. coli AG100A): < 1 µg/mL; MIC (E. coli D22): 2 to 4 µg/mL (≈ 2.72 to 5.44 µM); MIC (K. pneumoniae UMM): 2 to 4 µg/mL (≈ 2.72 to 5.44 µM); MIC (K. pneumoniae SI-117): 8 to 16 µg/mL (≈ 10.9 to 21.8 µM); MIC (E. coli 901C): < 1 µg/mL
14 | O=C(O)c1c(F)ccc2c1OB(O)[C@@H](NC(=O)C(NC(=O)N1CCN(C3CCN(C(=O)Nc4cc(O)ccc4Cl)CC3)C(=O)C1=O)c1cc(F)c(O)c(O)c1Cl)C2 (stereo partly drawn) [Example 483, (3R)-3-(2-(2-chloro-5-fluoro-3,4-dihydroxyphenyl)-2-(4-(1-((2-chloro-5-hydroxyphenyl)carbamoyl)piperidin-4-yl)-2,3-dioxopiperazine-1-carboxamido)acetamido)-7-fluoro-2-hydroxy-3,4-dihydro-2H-benzo[e][1,2]oxaborinine-8-carboxylic acid] | > 250 | 
15 | O=C(O)c1c(F)ccc2c1OB(O)[C@@H](NC(=O)[C@H](NC(=O)N1CCN(C3CCN(C(=O)Nc4cc(O)cc(F)c4)CC3)C1=O)c1cc(F)c(O)c(O)c1Cl)C2 (single isomer, unassigned) [Example 450] | > 250 | 
16 | O=C(O)c1c(F)ccc2c1OB(O)[C@@H](NC(=O)[C@H](NC(=O)N1CCN(C3CCN(C(=O)Nc4cc(O)ccc4Cl)CC3)C1=O)c1cc(F)c(O)c(O)c1Cl)C2 (single isomer, unassigned) [Example 448] | > 250 | 
